Data as given in ChEMBL document CHEMBL1201862, “PubChem BioAssay data set” (2004).
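Briefly, cells in 96-well plates were exposed to five compound concentrations for 48 h, and endpoints were estimated by linear interpolation. The concentration for 50% growth inhibition is given as GI50.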 The source made the active and inactive calls. No stated cut-off is given here; in the data, active = GI50 up to about 1.1 µM and inactive = higher.

What was measured:
Test in all cases: NCI tumour cell line growth inhibition, 48 h
HCT-15 = tested on: HCT-15
NCI-H460 = tested on: NCI-H460
COLO 205 = tested on: COLO 205
A549 = tested on: A549
NCI/ADR-RES = tested on: NCI/ADR-RES
SN12C = tested on: SN12C
786-0 = tested on: 786-0
U-251 = tested on: U-251
MDA-MB-231 = tested on: MDA-MB-231
UACC-62 = tested on: UACC-62
SK-MEL-2 = tested on: SK-MEL-2
LOX IMVI = tested on: LOX IMVI
SF-295 = tested on: SF-295
HT-29 = tested on: HT-29
OVCAR-5 = tested on: OVCAR-5
MOLT-4 = tested on: MOLT-4
TK-10 = tested on: TK-10
OVCAR-8 = tested on: OVCAR-8
MCF7 = tested on: MCF7
A498 = tested on: A498
PC-3 = tested on: PC-3
SK-OV-3 = tested on: SK-OV-3
MDA-N = tested on: MDA-N
SW-620 = tested on: SW-620
OVCAR-3 = tested on: OVCAR-3
HCC 2998 = tested on: HCC 2998
Hs-578T = tested on: Hs-578T
ACHN = tested on: ACHN
EKVX = tested on: EKVX
Malme-3M = tested on: Malme-3M
CCRF-CEM = tested on: CCRF-CEM
OVCAR-4 = tested on: OVCAR-4
KM12 = tested on: KM12
UO-31 = tested on: UO-31
M14 = tested on: M14
HCT-116 = tested on: HCT-116
DU-145 = tested on: DU-145
CAKI-1 = tested on: CAKI-1
RXF 393 = tested on: RXF 393
SNB-19 = tested on: SNB-19
SK-MEL-5 = tested on: SK-MEL-5
SK-MEL-28 = tested on: SK-MEL-28
HOP-62 = tested on: HOP-62
UACC-257 = tested on: UACC-257
IGROV-1 = tested on: IGROV-1
HL-60 = tested on: HL-60
NCI-H23 = tested on: NCI-H23
SF-268 = tested on: SF-268
HOP-92 = tested on: HOP-92
NCI-H226 = tested on: NCI-H226
K562 = tested on: K562
T47D = tested on: T47D
MDA-MB-435 = tested on: MDA-MB-435
RPMI-8226 = tested on: RPMI-8226
BT-549 = tested on: BT-549
SNB-75 = tested on: SNB-75
SF-539 = tested on: SF-539

In the case of `CCN1CCC(O)(c2ccc(Oc3ccc(C)cc3)cc2)C(C(=O)c2ccc(Oc3ccc(C)cc3)cc2)C1` (centres undefined), the GI50 (HCT-15) is reported as 4.01 µM, the GI50 (NCI-H460) is reported as 3.28 µM (inactive) and the GI50 (COLO 205) is reported as 12.1 µM (inactive). For the same molecule, the GI50 (A549) was 12.8 µM (inactive), the GI50 (NCI/ADR-RES) was 13.8 µM (inactive) and the GI50 (SN12C) was 14.8 µM (inactive). The GI50 (786-0) was 4.99 µM (inactive), the GI50 (U-251) was 11.6 µM (inactive) and the GI50 (MDA-MB-231) was 6.18 µM (inactive). The GI50 (UACC-62) was 12.1 µM (inactive), the GI50 (SK-MEL-2) was 18 µM (inactive) and the GI50 (LOX IMVI) was 3.69 µM (inactive). For the same molecule, the GI50 (SF-295) was 5.69 µM (inactive), the GI50 (HT-29) was 3.33 µM (inactive) and the GI50 (OVCAR-5) was 13.9 µM (inactive). The GI50 (MOLT-4) was 10.3 µM (inactive), the GI50 (TK-10) was 8.61 µM (inactive) and the GI50 (OVCAR-8) was 13.7 µM (inactive). The GI50 (MCF7) was 2.42 µM (inactive), the GI50 (A498) was 0.426 µM (active) and the GI50 (PC-3) was 10.9 µM (inactive). The GI50 (SK-OV-3) was 16.1 µM (inactive), the GI50 (MDA-N) was 10.7 µM (inactive) and the GI50 (SW-620) was 12.9 µM (inactive). For the same molecule, the GI50 (OVCAR-3) was 16 µM (inactive), the GI50 (HCC 2998) was 7.91 µM (inactive) and the GI50 (Hs-578T) was 17.8 µM (inactive). The GI50 (ACHN) was 13.2 µM (inactive), the GI50 (EKVX) was 15.6 µM (inactive) and the GI50 (Malme-3M) was 14.6 µM (inactive). The GI50 (CCRF-CEM) was 5.13 µM (inactive), the GI50 (OVCAR-4) was 1.94 µM (inactive) and the GI50 (KM12) was 6.37 µM (inactive). The GI50 (UO-31) was 3.77 µM (inactive), the GI50 (M14) was 7.43 µM (inactive) and the GI50 (HCT-116) was 6.41 µM (inactive). The GI50 (DU-145) was 7.28 µM (inactive), the GI50 (CAKI-1) was 12.9 µM (inactive) and the GI50 (RXF 393) was 2.81 µM (inactive). For the same molecule, the GI50 (SNB-19) was 14.2 µM (inactive), the GI50 (SK-MEL-5) was 8.04 µM (inactive) and the GI50 (SK-MEL-28) was 11.2 µM (inactive). For the same molecule, the GI50 (HOP-62) was 15.2 µM (inactive), the GI50 (UACC-257) was 13.2 µM (inactive) and the GI50 (IGROV-1) was 12.5 µM (inactive). The GI50 (HL-60) was 1.68 µM (inactive), the GI50 (NCI-H23) was 13.7 µM (inactive) and the GI50 (SF-268) was 17 µM (inactive). The GI50 (HOP-92) was 10 µM (inactive), the GI50 (NCI-H226) was 14.1 µM (inactive) and the GI50 (K562) was 2.95 µM (inactive). The GI50 (T47D) was 12.8 µM (inactive), the GI50 (MDA-MB-435) was 11.6 µM (inactive) and the GI50 (RPMI-8226) was 1.48 µM (inactive). The GI50 (BT-549) was 10.6 µM (inactive) and the GI50 (SNB-75) was 7.16 µM (inactive).

`O=C(O)c1cc(Sc2ccc([N+](=O)[O-])c(C(=O)O)c2)ccc1[N+](=O)[O-]` was tested, and the GI50 (HCT-15) was greater than 100 µM, the GI50 (NCI-H460) was > 100 µM (inactive) and the GI50 (COLO 205) was > 100 µM (inactive). The GI50 (A549) was > 100 µM (inactive), the GI50 (NCI/ADR-RES) was > 100 µM (inactive) and the GI50 (SN12C) was > 100 µM (inactive). The GI50 (786-0) was > 100 µM (inactive), the GI50 (U-251) was > 100 µM (inactive) and the GI50 (MDA-MB-231) was > 100 µM (inactive). For the same molecule, the GI50 (UACC-62) was > 100 µM (inactive), the GI50 (SK-MEL-2) was > 100 µM (inactive) and the GI50 (LOX IMVI) was > 100 µM (inactive). For the same molecule, the GI50 (SF-295) was > 100 µM (inactive), the GI50 (HT-29) was > 100 µM (inactive) and the GI50 (OVCAR-5) was > 100 µM (inactive). The GI50 (MOLT-4) was > 100 µM (inactive), the GI50 (TK-10) was > 100 µM (inactive) and the GI50 (OVCAR-8) was > 100 µM (inactive). The GI50 (MCF7) was > 100 µM (inactive), the GI50 (A498) was > 100 µM (inactive) and the GI50 (PC-3) was > 100 µM (inactive). For the same molecule, the GI50 (SK-OV-3) was > 100 µM (inactive), the GI50 (MDA-N) was > 100 µM (inactive) and the GI50 (SF-539) was > 100 µM (inactive). For the same molecule, the GI50 (SW-620) was > 100 µM (inactive), the GI50 (OVCAR-3) was > 100 µM (inactive) and the GI50 (Hs-578T) was > 100 µM (inactive). For the same molecule, the GI50 (ACHN) was > 100 µM (inactive), the GI50 (EKVX) was > 100 µM (inactive) and the GI50 (Malme-3M) was 0.413 µM (active). For the same molecule, the GI50 (CCRF-CEM) was > 100 µM (inactive), the GI50 (OVCAR-4) was > 100 µM (inactive) and the GI50 (KM12) was > 100 µM (inactive). The GI50 (UO-31) was > 100 µM (inactive), the GI50 (M14) was > 100 µM (inactive) and the GI50 (HCT-116) was > 100 µM (inactive). For the same molecule, the GI50 (DU-145) was > 100 µM (inactive), the GI50 (RXF 393) was > 100 µM (inactive) and the GI50 (SNB-19) was > 100 µM (inactive). The GI50 (SK-MEL-5) was > 100 µM (inactive), the GI50 (SK-MEL-28) was > 100 µM (inactive) and the GI50 (HOP-62) was > 100 µM (inactive). For the same molecule, the GI50 (UACC-257) was > 100 µM (inactive), the GI50 (IGROV-1) was > 100 µM (inactive) and the GI50 (HL-60) was > 100 µM (inactive). The GI50 (SF-268) was > 100 µM (inactive), the GI50 (HOP-92) was > 100 µM (inactive) and the GI50 (NCI-H226) was > 100 µM (inactive). For the same molecule, the GI50 (K562) was > 100 µM (inactive), the GI50 (T47D) was > 100 µM (inactive) and the GI50 (MDA-MB-435) was > 100 µM (inactive). The GI50 (RPMI-8226) was > 100 µM (inactive) and the GI50 (BT-549) was > 100 µM (inactive).
